Test results as given in patent US20180200263A1, “TOPICAL TREATMENT REGIMENS CONTAINING A PROSTAGLANDIN F2a ANALOG AND A TOPICAL STEROID” (priority 2015, published 2018).

Test system: subjects with vitiligo (depigmented areas on neck, trunk and extremities)
Experiment: Efficacy and safety study in vitiligo, blinded investigator evaluation on a score of 0 to 7
Assay type: in vivo
Details: share of the subjects in the group; after the 20 week topical treatment regimen was completed; nonfacial areas
Method: An efficacy and safety study was conducted to compare the effects of bimatoprost monotherapy, mometasone monotherapy, and the combination of bimatoprost and mometasone. 18 randomized subjects completed the 20 week study, five coming in each of the bimatoprost monotherapy and mometasone monotherapy groups with the other eight coming in the bimatoprost/mometasone combination group. Subjects with vitiligo applied the corresponding drug(s) to depigmented areas on their neck, truck, and extremities. Per FDA request, facial areas where not treated during the study. For the bimatoprost monotherapy group, subjects were instructed to administer bimatoprost twice daily (morning and evening) for all 20 weeks. For the mometasone monotherapy group, subjects were instructed to administer mometasone once daily in the morning for weeks 1-12 and 17-20. Placebo (Cetaphil) was instructed to be administered in the morning for weeks 13-16 and in the evening for all 20 weeks. For the bimatoprost/mometasone combination group, subjects were instructed to administer mometasone once daily in the morning for weeks 1-12 and 17-20 and placebo was administered in the morning for weeks 13-16. Subjects were instructed to administer bimatoprost once daily evening for all 20 weeks. Subjects in either the bimatoprost monotherapy group or the bimatoprost/mometasone combination group the subjects were instructed to administer bimatoprost in the form of a 0.03 wt. % solution which was to be applied in a dose of 1 to 2 drops per 2 cm^2 body surface area. Subjects in either the mometasone monotherapy group or the bimatoprost/mometasone combination group the subjects were instructed to administer mometasone in the form of 0.1 wt. % mometasone furoate cream which was to be applied in a dose of 1 to 2 pea-sized quantities per anatomic area. The subjects were blind as to which group they were in and therefore which drug(s) they were administering. During the study period, the subjects were periodically evaluated by an investigator. The investigators evaluated the subjects on a score of 0 to 7 with 0 meaning that the subject's condition was worse, 1 being unchanged, 2 being slight improvement (approximately 10% improvement), 3 being mild improvement (approximately 10 to 25% improvement), 4 being moderate improvement (approximately 25 to 50% improvement), 5 being marked improvement (approximately 50 to 75% improvement), 6 being almost cleared (approximately 75 to 99% improvement), 7 being cleared (100% improvement). Like the subjects, the investigators were blind as to which group the subjects they were evaluating were in and therefore which drug(s) they were evaluating were administering.

Structure (SMILES) | subjects with mild improvement (score 3, approximately 10 to 25% improvement) | subjects with moderate improvement (score 4, approximately 25 to 50% improvement) | subjects with slight improvement (score 2, approximately 10% improvement)
CCNC(=O)CCC/C=C\C[C@@H]1[C@@H](/C=C/[C@@H](O)CCc2ccccc2)[C@H](O)C[C@@H]1O [bimatoprost, Bimatoprost] | 60% | 40% | –
C[C@@H]1C[C@H]2[C@@H]3CCC4=CC(=O)C=C[C@]4(C)[C@@]3(Cl)[C@@H](O)C[C@]2(C)[C@@]1(OC(=O)c1ccco1)C(=O)CCl [mometasone, mometasone furoate] | 40% | – | 60%
